Several values for one entry are separate records, joined by “and”; a condition that tells them apart may be missing. Equal entries are not always repeated.
Legend:
[1] = system: human coronary artery endothelial cells (HCAEC); assay: CellTiter 96 One solution (MTS) cell proliferation assay, HCAEC; assay type: cell-based
Experimental: (§1) Human coronary artery endothelial cells (HCAEC) were purchased from Cambrex and human coronary artery smooth muscle cells (HCASMC) were purchased from Promocell. Cells were used for experiments between passage 4 and passage 12. Both cell types were cultured in their respective complete culture medium with the following composition: • HCASMC: Smooth Muscle Cell Growth Medium 2: Epidermal Growth Factor (EGF), basic Fibroblast Factor (FGF), Insulin, Fetal Calf Serum (FCS) 5%, Amphotericin B, Gentamicin. • HCAEC: Endothelial Growth Media-2 MV: hEGF, Hydrocortisone, GA-1000, FBS 5%, VEGF, hFGF-B, R3-IGF-1, Ascorbic Acid Medium was changed every other day. 24 hours prior to growth factor stimulation, the medium was replaced by fresh culture medium, however, without growth factors to increase the cellular sensitivity to the subsequent growth factor stimulation. Subconfluent HCAEC were stimulated with 10 ng/ml of VEGF-A, whereas subconfluent HCASMC were stimulated with 10 ng/ml of PDGF-BB. Likewise, both cell types were stimulated with 25% of human serum (final concentration). Melatonin (Acros organics) was kindly provided by BlueMedical Devices BV. A stock solution was prepared in DMSO, aliquoted and stored at −20° C. For each experiment a fresh aliquot was opened and diluted to the desired final concentration in cell culture medium. All proliferation and cytotoxicity experiments were performed on cells cultured on 96 well plates (Costar). The CellTiter 96 One solution cell proliferation assay from Promega was used to assess cell proliferation in a 96-well plate. This assay makes use of the MTS tetrazolium compound as a cellular substrate. MTS is bioreduced by living cells into a coloured formazan product that is soluble in tissue culture medium and absorbs light at 490 nm. The quantity of formazan produced is directly proportional to the number of living cells in culture. After 24 h stimulation, 20 μl of MTS reagent was added to the cells cultured in 100 ul of medium per well. After 2 to 4 hours of incubation at 37° C., 5% CO2, the absorbance at 490 nm was recorded using a 96-well plate reader (Tecan).

HCAEC [2] = assay: CytoTox-ONE LDH release cytotoxicity assay, HCAEC; assay type: cell-based, human; settings: 48 hours, 0.2 to 6 mM Melatonin
Experimental: (§2) Cytotoxicity experiments were performed with cells cultured on 96-well plates. The CytoTox-ONE™ Assay from Promega was used to assess the membrane integrity of cells. This test is based on a fluorometric method to estimate the number of non viable cells present in multiwell plates by measuring the release of lactate dehydrogenase (LDH) from cells with damaged membranes. Subconfluent cells were incubated for 48 hours with Melatonin at concentrations between 0.2 and 6 mM. During the 48 h Melatonin incubation, the medium was not changed to avoid removal of any detached cells. As a positive control three wells of untreated cells were incubated with lysis buffer (delivered with the assay) before measurement. At the end of the Melatonin incubation period, a volume of CytoTox-ONE reagent equal to the volume of cell culture medium present in each well was added. After 10 min incubation at 22° C. (room temperature), 50 μl of stop solution was added per 100 μl of CytoTox-ONE reagent added. The plate was shaked for 10 seconds and fluorescence was recorded with an excitation wavelength of 560 nm and an emission wavelength of 590 nm (Spectramax M2 fluorescence plate reader, Molecular devices).

[3] = system: human coronary artery smooth muscle cells (HCASMC); assay: CellTiter 96 One solution (MTS) cell proliferation assay, HCASMC; assay type: cell-based
Experimental: as §1

HCASMC = assay: CytoTox-ONE LDH release cytotoxicity assay, HCASMC; assay type: cell-based, human; settings: 48 hours, 0.2 to 6 mM Melatonin
Experimental: as §2

HCAEC [4] = assay: Chemotaxis towards VEGF-A, modified Boyden chamber, HCAEC; assay type: cell-based, human; settings: 2 mM Melatonin; VEGF-A 10 ng/ml; migration 4 hours; performed only once
Experimental: Chemotaxis experiments were performed using a modified Boyden chamber. The apparatus consists of two multi-well chambers separated by a filter containing pores of uniform size. A solution containing a chemokine or chemotactic factor is placed in the lower/bottom chamber and a cell suspension is placed in the upper chamber. Cells can migrate through the pores across the filter and towards the chemoattractant in the lower chamber. Cells that migrated across the filter and remain attached to the lower side of the membrane are counted. Data are expressed in terms of migration index: the number of cells that migrated in response to agonist stimulation compared to the number of cells that migrated randomly, i.e. to medium only. Chemotaxis experiments so far were only performed with HCAEC. For these cells a 25×80 mm polycarbonate filter, […] (PVP) free was used (Whatman) with a pore size of […]. Before migration the filter was coated with collagen. Endothelial cells were incubated with Melatonin at 2 mM prior to and during migration. After 24 hours pre-incubation with Melatonin, untreated and Melatonin-treated cells were detached with trypsin and a cell suspension (0.5 million cells/ml) was loaded in the upper part of the chamber. […] At the end of migration, cells were fixed on the filter, stained with Giemsa and counted using a regular optic microscope.

[5] = system: HUVEC (Human Umbilical Vein Endothelial Cells); assay: [3H]-thymidine incorporation, HUVEC stimulated with VEGF-A; assay type: cell-based; settings: VEGF A 10 ng/ml 24 hours
Experimental: To investigate, whether melatonin has similar effects on other cell types, HUVEC (Human Umbilical Vein Endothelial Cells, Promocell) were tested. HUVEC were cultured in the corresponding complete medium (Endothelial Cell Growth Medium: ECGS/H 0.4%, Fetal Calf Serum 2%, Epidermal Growth Factor 0.1 ng/ml, Hydrocortison 1 μg/ml, basic Fibroblast Factor 1 ng/ml, Amphotericin B 50 ng/ml, Gentamicin 50 μg/ml). 24 hours prior to stimulation, the medium was replaced by a medium containing 2% serum and antibiotics, but devoid of the other complements. Then, HUVEC were stimulated with 10 ng/ml of VEGF-A for 24 hours. HUVEC were incubated for 48 hours with Melatonin and stimulated for 24 hours with VEGF-A at 10 ng/ml. After 24 hours of stimulation, the cells were incubated with radioactive [^3H]-thymidine. Two hour later, the medium was removed and cell-bound DNA was precipitated using 5% TCA (Trichloroacetic acid). Then, [^3H]-thymidine incorporation was measured using a beta-counter.

With COc1ccc2[nH]cc(CCNC(C)=O)c2c1 [Melatonin, N-acetyl-5-methoxytryptamine] the “concentrations at which proliferation of HCAEC is strongly inhibited” value [1] was “higher than 0.2 mM”, the “effect on HCAEC cell number” value ([1]; Melatonin between 1 mM and 6 mM) was “dramatic decrease in cell number” and the “sensitivity of HCAEC proliferation” value ([1]; Melatonin up to 0.1 mM) was “not sensitive”. For the same compound, the “concentration of maximal effect on HCAEC cell number” value ([1]; subconfluent cells) was 3 mM and 6 mM, the “cytotoxic effect (LDH release) on HCAEC” value (HCAEC [2]) was “does not induce any detectable cytotoxic effect” and the “concentrations at which proliferation of HCASMC is strongly inhibited” value [3] was “higher than 0.2 mM”. The “effect on number of smooth muscle cells” value ([3]; 1 mM Melatonin, 24 hours pre-treatment, PDGF BB 10 ng/ml 24 h) was “significant decrease in the number of smooth muscle cells”, the “effect on the proliferation of HCASMC” value ([3]; Melatonin up to 0.1 mM, PDGF BB 10 ng/ml 24 h) was “no significant effect” and the “concentration of maximal inhibitory effect on HCASMC” value ([3]; PDGF-BB stimulated) was 5 mM. For the same compound, the “inhibitory effect on HCASMC at higher concentrations” value ([3]; above 5 mM, up to 10 mM) was “no significant further increase in the inhibitory effect”, the “cytotoxic effect (LDH release) on HCASMC” value (HCASMC) was “does not induce any detectable cytotoxic effect” and the “effect on chemotactic response of HCAEC towards VEGF-A” value (HCAEC [4]) was “did not have any significant effect”. For the same compound, the “effect on HUVEC” value ([5]; 0.2 mM Melatonin, 48 hours) was “inhibitory effect” and the “VEGF-A induced [3H]-thymidine incorporation” value ([5]; Melatonin 48 hours) was “completely inhibited”.

— patent US20090258053A1, “MEDICAL STENT PROVIDED WITH A COMBINATION OF MELATONIN AND PACLITAXEL” (Blue Medical Deevices BV, priority 2006, published 2009)
